In article PMC10035389, “Safety, Tolerability, and Pharmacokinetics of TAK-931, a Cell Division Cycle 7 Inhibitor, in Patients with Advanced Solid Tumors: A Phase I First-in-Human Study” (Cancer Research Communications, 2022):

Tested on: patients with advanced solid tumors
Assay: Safety and tolerability (adverse events, NCI CTCAE v4.03), phase I dose-escalation study
Assay type: in vivo, human
Source text: This was a phase I, open-label, dose-escalation study of single-agent TAK-931. Dose escalation of TAK-931 was cohort based with an adaptive design using Bayesian logistic regression modeling (BLRM) with pharmacokinetic guidance. BLRM also guided MTD estimation from the second dose. Patients were enrolled in one of four dosing schedules (A, B, D, or E; Supplementary Fig. S1) to receive TAK-931. Two additional schedules were planned (C and F) but no patients were enrolled. Schedule A included an initial accelerated escalation phase. TAK-931 was administered once daily for 14 days in 21-day cycles starting at 30 mg, which doubled until a cycle 1 dose-limiting toxicity (DLT) was observed, when 2 patients experienced grade ≥2 treatment-related toxicity, or when maximum geometric mean plasma concentration (Cmax) for the cohort reached or exceeded 800 ng/mL [threshold for off-target adverse effects (hypotension) in animal toxicology studies]; then dose escalation transitioned to modified Fibonacci escalation steps. In schedule B (based on experience with schedule A), patients received TAK-931 once daily or twice daily for 7 days on, 7 days off in a 28-day cycle starting at 60 mg. In schedule D, patients received TAK-931 once daily starting at 20 mg in 21-day cycles; BLRM was not applied but further adjustments were dependent on observed safety, pharmacokinetics, and pharmacodynamics. In schedule E, patients received TAK-931 once daily for 2 days on, 5 days off starting at 100 mg in 21-day cycles. A safety expansion was permitted once MTD had been determined. Prophylactic growth factors were permitted in all schedules to manage severe and/or febrile neutropenia. TAK-931 treatment continued until unacceptable toxicity, disease progression, or patient withdrawal.
DLTs included: cycle 1 grade ≥3 hematologic and non-hematologic events or grade 2 non-hematologic events considered by the investigator to be TAK-931-related, grade 2 ejection fraction decrease, >2 weeks delay in initiating cycle 2 (1 week for schedules D and E), and >50% TAK-931 dose reduction in cycle 1 due to treatment-related adverse events (AEs; see Supplementary Materials and Methods for full DLT criteria). Toxicity was evaluated by NCI Common Terminology Criteria for Adverse Events (version 4.03). Tumor response was measured using the RECIST (version 1.1) ([16]). Serial blood samples for pharmacokinetic analysis were collected during cycle 1 on days 1 and 7 (schedule B), 1 and 8 (schedules A and D), or 1 and 9 (schedule E). Pharmacokinetic parameters were estimated from concentration–time profiles using noncompartmental methods with WinNonlin® Phoenix™ version 8.1 (Certara, Princeton, NJ). pMCM2 was detected semiquantitatively by IHC of histologic sections of formalin-fixed, paraffin-embedded skin and tumor biopsies using anti-pMCM2 (3378-1, Epitomics Inc.; ref. [15]). Quantitative image analysis determined pMCM2 levels as “histologic score nuclei (H-score).” Skin punch biopsies (2–4 mm) were obtained during screening or predose on cycle 1, day 1 and for patients in schedules A, B, and D, postdose on any drug dosing day after 3 consecutive dosing days in cycle 1. A postdose skin biopsy was obtained on day 9 in schedule E. Fresh tumor biopsy pairs were collected predose and postdose on any dosing day after the completion of 3 consecutive dosing days in cycle 1 from patients who received doses considered to have biological effect.
The safety population included patients who received ≥1 dose of TAK-931. The pharmacodynamic-evaluable population comprised patients from the safety population with a baseline and ≥1 additional postbaseline biopsy sample that was suitable for pMCM2 analysis. The pharmacokinetic-evaluable population included patients with sufficient dosing and TAK-931 concentration–time data to estimate pharmacokinetic parameters. […]

[1] = Schedule A (once daily 14 days, 21-day cycles) n = 25
[2] = Schedule B (7 days on, 7 days off, 28-day cycles) n = 24
[3] = Schedule D (continuous once daily) n = 18

Cc1[nH]ncc1-c1cc2nc([C@@H]3CC4CCN3CC4)[nH]c(=O)c2s1 [TAK-931, simurosertib]
5 (21) n (%): Constipation, AE any grade [2] | Decreased appetite, AE any grade [2] | Fatigue, AE any grade [2] | White blood cell count decreased, AE any grade [2]
3 (13) n %: Anemia, grade ≥3 AE [2] | Febrile neutropenia, grade ≥3 AE [2] | White blood cell count decreased, grade ≥3 AE [2]
3 (12) n %: White blood cell count decreased, grade ≥3 AE [1]
3 (13) n (%): Abdominal pain, AE any grade [2] | Blood creatinine increased, AE any grade [2] | Febrile neutropenia, AE any grade [2] | Gamma-glutamyltransferase increased, AE any grade [2] | Lymphopenia, AE any grade [2] | Nasopharyngitis, AE any grade [2] | Pruritus, AE any grade [2] | Rash popular, AE any grade [2]
8 (32) n (%): White blood cell count decreased, AE any grade [1]
15 (60) n (%): Nausea, AE any grade [1]
5 (28) n (%): Nausea, AE any grade [3]
11 (44) n %: Neutropenia, grade ≥3 AE [1]
2 (11) n (%): Constipation, AE any grade [3] | Edema peripheral, AE any grade [3] | Platelet count decreased, AE any grade [3] | Pyrexia, AE any grade [3]
4 (16) n (%): Edema peripheral, AE any grade [1] | Hypoalbuminemia, AE any grade [1]
3 (17) n %: Neutropenia, grade ≥3 AE [3]
1 (6) n (%): Arthralgia, AE any grade [3] | Blood creatinine increased, AE any grade [3] | Diarrhea, AE any grade [3] | Dry skin, AE any grade [3] | Fall, AE any grade [3] | Nasopharyngitis, AE any grade [3] | Pruritus, AE any grade [3]
1 (4) n (%): Dry skin, AE any grade [1] | Febrile neutropenia, AE any grade [1] | Thrombocytopenia, AE any grade [1] | Arthralgia, AE any grade [2] | Dry skin, AE any grade [2] | Edema peripheral, AE any grade [2] | Fall, AE any grade [2] | Malaise, AE any grade [2] | Orthostatic hypotension, AE any grade [2] | Platelet count decreased, AE any grade [2] | Pyrexia, AE any grade [2] | Tumor pain, AE any grade [2]
2 (8) n %: Decreased appetite, grade ≥3 AE [1] | Gamma-glutamyltransferase increased, grade ≥3 AE [2] | Hypoalbuminemia, grade ≥3 AE [2]
1 (4) n %: Anemia, grade ≥3 AE [1] | Febrile neutropenia, grade ≥3 AE [1] | Hypophosphatemia, grade ≥3 AE [1] | Lymphocyte count decreased, grade ≥3 AE [1] | Hypophosphatemia, grade ≥3 AE [2]
19 (79) n (%): Neutropenia, AE any grade [2]
6 (25) n %: Leukopenia, grade ≥3 AE [2]
4 (17) n (%): Anemia, AE any grade [2] | Diarrhea, AE any grade [2] | Hypotension, AE any grade [2] | Thrombocytopenia, AE any grade [2]
7 (28) n (%): Decreased appetite, AE any grade [1] | Diarrhea, AE any grade [1] | Vomiting, AE any grade [1]
3 (12) n (%): Arthralgia, AE any grade [1] | Blood creatinine increased, AE any grade [1] | Cough, AE any grade [1] | Electrocardiogram QT prolonged, AE any grade [1] | Lymphocyte count decreased, AE any grade [1] | Tumor pain, AE any grade [1]
5 (20) n %: Leukopenia, grade ≥3 AE [1]
6 (24) n (%): Alopecia, AE any grade [1] | Anemia, AE any grade [1]
6 (25) n (%): Stomatitis, AE any grade [2]
3 (17) n (%): Alopecia, AE any grade [3] | Anemia, AE any grade [3] | Fatigue, AE any grade [3] | Malaise, AE any grade [3]
6 (33) n (%): Decreased appetite, AE any grade [3] | Neutropenia, AE any grade [3]
1 (6) n %: Anemia, grade ≥3 AE [3] | Decreased appetite, grade ≥3 AE [3]
0 (0) n %: Gamma-glutamyltransferase increased, grade ≥3 AE [1] | Hypoalbuminemia, grade ≥3 AE [1] | Decreased appetite, grade ≥3 AE [2] | Lymphocyte count decreased, grade ≥3 AE [2] | Febrile neutropenia, grade ≥3 AE [3] | Gamma-glutamyltransferase increased, grade ≥3 AE [3] | Hypoalbuminemia, grade ≥3 AE [3] | Hypophosphatemia, grade ≥3 AE [3] | Leukopenia, grade ≥3 AE [3] | Lymphocyte count decreased, grade ≥3 AE [3]
5 (20) n (%): Leukopenia, AE any grade [1] | Malaise, AE any grade [1] | Pyrexia, AE any grade [1]
0 (0) n (%): Fall, AE any grade [1] | Gamma-glutamyltransferase increased, AE any grade [1] | Orthostatic hypotension, AE any grade [1] | Pruritus, AE any grade [1] | Rash popular, AE any grade [1] | Stomatitis, AE any grade [1] | Cough, AE any grade [2] | Electrocardiogram QT prolonged, AE any grade [2] | Lymphocyte count decreased, AE any grade [2] | Abdominal pain, AE any grade [3] | Cough, AE any grade [3] | Electrocardiogram QT prolonged, AE any grade [3] | Febrile neutropenia, AE any grade [3] | Gamma-glutamyltransferase increased, AE any grade [3] | Hypoalbuminemia, AE any grade [3] | Hypotension, AE any grade [3] | Leukopenia, AE any grade [3] | Lymphocyte count decreased, AE any grade [3] | Lymphopenia, AE any grade [3] | Orthostatic hypotension, AE any grade [3]
12 (48) n (%): Neutropenia, AE any grade [1]
15 (63) n %: Neutropenia, grade ≥3 AE [2]
13 (54) n (%): Alopecia, AE any grade [2] | Leukopenia, AE any grade [2] | Vomiting, AE any grade [2]
21 (88) n (%): Nausea, AE any grade [2]
2 (8) n (%): Abdominal pain, AE any grade [1] | Constipation, AE any grade [1] | Fatigue, AE any grade [1] | Hypotension, AE any grade [1] | Lymphopenia, AE any grade [1] | Nasopharyngitis, AE any grade [1] | Platelet count decreased, AE any grade [1] | Hypoalbuminemia, AE any grade [2]
